We go through 25 compounds from US20140309210A1, “INDAZOLE COMPOUNDS, COMPOSITIONS AND METHODS OF USE THEREOF” (Genentech, Inc., priority 2011, published 2014).

For the test, the target named is T1, purified ITK (Invitrogen PV3875) (Homo sapiens, UniProt Q08881).
T1 construct: purchased Invitrogen PV3875
T1 sequence (Q08881 1-620): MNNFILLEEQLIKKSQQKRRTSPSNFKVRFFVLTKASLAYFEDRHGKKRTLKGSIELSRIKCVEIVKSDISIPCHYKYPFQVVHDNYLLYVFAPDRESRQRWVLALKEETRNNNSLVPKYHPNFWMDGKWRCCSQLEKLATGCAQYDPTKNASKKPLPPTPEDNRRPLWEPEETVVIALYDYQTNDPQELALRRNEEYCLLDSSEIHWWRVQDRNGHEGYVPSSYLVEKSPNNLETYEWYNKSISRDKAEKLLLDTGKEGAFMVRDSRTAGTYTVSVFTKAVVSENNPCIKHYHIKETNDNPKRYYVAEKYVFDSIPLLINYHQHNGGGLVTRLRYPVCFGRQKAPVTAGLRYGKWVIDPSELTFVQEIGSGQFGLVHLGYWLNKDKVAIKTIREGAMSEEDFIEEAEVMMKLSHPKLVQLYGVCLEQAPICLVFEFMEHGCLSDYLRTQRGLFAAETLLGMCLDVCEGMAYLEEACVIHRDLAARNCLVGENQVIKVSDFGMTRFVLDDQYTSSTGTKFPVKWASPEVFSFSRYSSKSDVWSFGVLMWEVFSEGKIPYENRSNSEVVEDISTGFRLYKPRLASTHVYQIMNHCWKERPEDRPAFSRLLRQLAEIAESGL
The test is described as follows: ITK peptide phosphorylation assay (Caliper LabChip or LCMS). In kind it is biochemical. To be noted: Table 1, Examples 141-279. In a few lines: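 Ki values come from Morrison quadratic fits of activity versus inhibitor concentration, adjusted for ATP-competitive inhibition against ATP/Km,app. Substrate and phosphopeptide from purified ITK reactions were resolved either microfluidically (Caliper, EDTA stop) or by LC-MS MRM (TCA stop).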
For orientation: Ki means a measure of affinity in units of concentration, obtained from inhibition or displacement. A high value points to a looser hold on the target. In turn, `CN(CCO)c1nc(Cn2cc(NC(=O)c3n[nH]c4cc(-c5cn[nH]c5)ccc34)cn2)cs1` [Example 141, N-[1-[[2-[2-hydroxyethyl(meth-yl)amino]thiazol-4-yl]methyl]pyrazol-4-yl]-6-(1H-pyrazol-4-yl)-1H-indazole-3-carboxamide] yielded a Ki of 2.8 nM.

Turning to `N#Cc1cccc(Cn2cc(NC(=O)c3n[nH]c4cc(-n5ccnc5)ccc34)cn2)c1` [Example 142, N-[1-[(3-cyanophenyl)meth-yl]pyrazol-4-yl]-6-imidazol-1-yl-1H-indazole-3-carboxamide], the Ki worked out at 32.4 nM.

As to `O=C(Nc1cnn(Cc2cncc(Br)c2)c1)c1n[nH]c2cc(-c3cn[nH]c3)ccc12` [Example 143, N-[1-[(5-bromo-3-pyridyl)methyl]py-razol-4-yl]-6-(1H-pyrazol-4-yl)-1H-indazole-3-carboxamide], affinity was put at a Ki of 0.614 nM.

For the compound `N#Cc1cccc(Cn2cc(NC(=O)c3n[nH]c4cc(Br)c(F)cc34)cn2)c1` [Example 146, 6-bromo-N-[1-[(3-cyanophenyl)meth-yl]pyrazol-4-yl]-5-fluoro-1H-indazole-3-carboxamide], the Ki amounted to 111 nM.

In turn, `N#Cc1cccc(Cn2cc(NC(=O)c3n[nH]c4cc(-c5cn[nH]c5)c(F)cc34)cn2)c1` [Example 147, N-[1-[(3-cyanophenyl)meth-yl]pyrazol-4-yl]-5-fluoro-6-(1H-pyrazol-4-yl)-1H-indazole-3-carboxamide] came in with a Ki of 7.79 nM.

`Cc1cc2c(C(=O)Nc3cnn(Cc4cccc(C#N)c4)c3)n[nH]c2cc1-c1cncc(C#N)c1` [Example 148, N-[1-[(3-cyanophenyl)meth-yl]pyrazol-4-yl]-6-(5-cyano-3-pyridyl)-5-methyl-1H-indazole-3-carboxamide] came in with a Ki of 57.2 nM.

`Cc1cc2c(C(=O)Nc3cnn(Cc4cccc(C#N)c4)c3)n[nH]c2cc1-c1cccnc1` [Example 149, N-[1-[(3-cyanophenyl)meth-yl]pyrazol-4-yl]-5-methyl-6-(3-pyridyl)-1H-indazole-3-carboxamide]: the Ki came to 71.1 nM.

As to `Cc1cc2c(C(=O)Nc3cnn(Cc4cccc(C#N)c4)c3)n[nH]c2cc1-c1ccc(N)nc1` [Example 150, 6-(6-amino-3-pyridyl)-N-[1-[(3-cyanophenyl)meth-yl]pyrazol-4-yl]-5-methyl-1H-indazole-3-carboxamide], the inhibitory constant (Ki) worked out at 20.1 nM.

Take `Cc1cc2c(C(=O)Nc3cnn(Cc4cccc(C#N)c4)c3)n[nH]c2cc1-c1cn[nH]c1` [Example 151, N-[1-[(3-cyanophenyl)meth-yl]pyrazol-4-yl]-5-methyl-6-(1H-pyrazol-4-yl)-1H-indazole-3-carboxamide]: the Ki turned out to be 16.4 nM.

As to `N#Cc1cccc(Cn2cc(NC(=O)c3n[nH]c4cc(-c5ccc(N)nc5)c(F)cc34)cn2)c1` [Example 152, 6-(6-amino-3-pyridyl)-N-[1-[(3-cyanophenyl)meth-yl]pyrazol-4-yl]-5-fluoro-1H-indazole-3-carboxamide], the inhibition constant (Ki) stood at 12.8 nM.

The compound `N#Cc1cccc(Cn2cc(NC(=O)c3n[nH]c4cc(-c5cccnc5)c(F)cc34)cn2)c1` [Example 153, N-[1-[(3-cyanophenyl)meth-yl]pyrazol-4-yl]-5-fluoro-6-(3-pyridyl)-1H-indazole-3-carboxamide] gave a Ki of 57.5 nM.

As for `N#Cc1cccc(Cn2cc(NC(=O)c3n[nH]c4cc(-c5cncnc5)c(F)cc34)cn2)c1` [Example 154, N-[1-[(3-cyanophenyl)meth-yl]pyrazol-4-yl]-5-fluoro-6-pyrimidin-5-yl-1H-indazole-3-carboxamide], affinity was put at a Ki of 112 nM.

Turning to `N#Cc1cccc(Cn2cc(NC(=O)c3n[nH]c4cc(-c5cc[nH]n5)c(F)cc34)cn2)c1` [Example 155, N-[1-[(3-cyanophenyl)meth-yl]pyrazol-4-yl]-5-fluoro-6-(1H-pyrazol-3-yl)-1H-indazole-3-carboxamide], the affinity corresponds to a Ki of 99.9 nM.

On to `Cc1cc2c(C(=O)Nc3cnn(Cc4cccc(C#N)c4)c3)n[nH]c2cc1-c1cc[nH]n1` [Example 156, N-[1-[(3-cyanophenyl)meth-yl]pyrazol-4-yl]-5-methyl-6-(1H-pyrazol-3-yl)-1H-indazole-3-carboxamide], for which the affinity corresponds to a Ki of 80.8 nM.

With `CN(C)CCC(c1ccccc1)n1cc(NC(=O)c2n[nH]c3cc(-c4cccnc4)ccc23)cn1` (stereo not shown) [Example 157, N-[1-[3-(dimethylamino)-1-phenyl-propyl]pyrazol-4-yl]-6-(3-pyridyl)-1H-indazole-3-carboxamide], the inhibition constant (Ki) amounted to 7.81 nM.

`O=C(Nc1cnn(Cc2csc(N3CCC(O)C3)n2)c1)c1n[nH]c2cc(-c3cn[nH]c3)ccc12` (stereo not shown) [Example 158, N-[1-[[2-(3-hydroxypyrrolidin-1-yl)thiazol-4-yl]methyl]pyrazol-4-yl]-6-(1H-pyrazol-4-yl)-1H-indazole-3-carboxamide] returned a Ki of 3.93 nM.

Compound `O=C(Nc1cnn(Cc2csc(N3CCC(O)CC3)n2)c1)c1n[nH]c2cc(-c3cn[nH]c3)ccc12` [Example 159, N-[1-[[2-(4-hydroxy-1-piperidyl)thiazol-4-yl]methyl]pyrazol-4-yl]-6-(1H-pyrazol-4-yl)-1H-indazole-3-carboxamide] had an inhibition constant (Ki) of 3.11 nM.

As for `O=C(Nc1cnn(Cc2csc(C3CCNCC3)n2)c1)c1n[nH]c2cc(-c3cn[nH]c3)ccc12` [Example 160, N-[1-[[2-(4-piperidyl)thiazol-4-yl]methyl]pyrazol-4-yl]-6-(1H-pyrazol-4-yl)-1H-indazole-3-carboxamide], the inhibition constant Ki came to 4.65 nM.

Compound `O=C(Nc1cnn(Cc2cccc(N3CCC(O)C3)c2)c1)c1n[nH]c2cc(-c3cn[nH]c3)ccc12` (stereo not shown) [Example 161, N-[1-[[3-(3-hydroxypyrrolidin-1-yl)phenyl]meth-yl]pyrazol-4-yl]-6-(1H-pyrazol-4-yl)-1H-indazole-3-carboxamide] yielded a Ki of 1.15 nM.

Consider `O=C(Nc1cnn(C(CCN2CCOCC2)c2ccccc2)c1)c1n[nH]c2cc(-c3cn[nH]c3)ccc12` (stereo not shown) [Example 162, N-[1-(3-morpholino-1-phenyl-propyl)pyrazol-4-yl]-6-(1H-pyrazol-4-yl)-1H-indazole-3-carboxamide], for which the Ki was determined as 0.28 nM.

Compound `O=C(Nc1cnn(Cc2cncs2)c1)c1n[nH]c2cc(-c3cn[nH]c3)ccc12` [Example 163, 6-(1H-pyrazol-4-yl)-N-[1-(thiazol-5-ylmethyl)pyrazol-4-yl]-1H-indazole-3-carboxamide] yielded an inhibitory constant (Ki) of 1.16 nM.

`N#Cc1cccc(Cn2cc(NC(=O)c3n[nH]c4cc(-c5cncnc5)ccc34)cn2)c1` [Example 164, N-[1-[(3-cyanophenyl)meth-yl]pyrazol-4-yl]-6-pyrimidin-5-yl-1H-indazole-3-carboxamide] showed an inhibition constant Ki of 16.9 nM.

`CN1CC=C(c2ccc3c(C(=O)Nc4cnn(Cc5cccc(C#N)c5)c4)n[nH]c3c2)CC1` [Example 165, N-[1-[(3-cyanophenyl)meth-yl]pyrazol-4-yl]-6-(1-methyl-3,6-dihydro-2H-pyridin-4-yl)-1H-indazole-3-carboxamide] returned an inhibition constant Ki of 654 nM.

`COc1cncc(-c2ccc3c(C(=O)Nc4cnn(Cc5cccc(C#N)c5)c4)n[nH]c3c2)c1` [Example 166, N-[1-[(3-cyanophenyl)meth-yl]pyrazol-4-yl]-6-(5-methoxy-3-pyridyl)-1H-indazole-3-carboxamide]: the affinity, expressed as Ki, was 7.74 nM.

In turn, `O=C(Nc1cnn(Cc2c[nH]cn2)c1)c1n[nH]c2cc(-c3cn[nH]c3)ccc12` [Example 167, N-[1-(1H-imidazol-4-ylmethyl)pyrazol-4-yl]-6-(1H-pyrazol-4-yl)-1H-indazole-3-carboxamide] registered an inhibition constant Ki of 7.68 nM.
